Assay results reported in patent US12139498B1, “Positive allosteric modulators of the muscarinic acetylcholine receptor M4” (Vanderbilt University, priority 2023, dated 2024).
pEC50, pIC50: −log10 of the molar value.

Assays:
[1] = Fraction unbound in rat plasma; assay type: in vitro ADME; conditions: read-out: Rat Fu (plasma)
Experimental: (§1) Compound 70 was tested in several in in vitro assays to investigate both metabolism and pharmacokinetics. These assays may be performed according to known methods as generally described in the following references: Conde-Ceide et al. ACS Med. Chem. Lett. 2015, 6, 716-720; Morris et al. J. Med. Chem. 2014, 57, 10192-10197; and Bubser et al. ACS Chem. Neurosci. 2014, 5, 920-942.

[2] = Fraction unbound in cyno plasma; assay type: in vitro ADME; conditions: cynomolgus monkey, read-out: Cyno Fu (plasma)
Experimental: as §1

[3] = Fraction unbound in rat brain; assay type: in vitro ADME; conditions: read-out: Rat Fu (brain)
Experimental: as §1

[4] = Cyno intrinsic clearance; assay type: in vitro ADME; conditions: cynomolgus monkey
Experimental: as §1

[5] = biological target: P450 3A4 (Homo sapiens, UniProt P08684); assay: P450 3A4 inhibition; assay type: in vitro ADME
Experimental: as §1

[6] = biological target: P450 2D6 (Homo sapiens, UniProt P10635); assay: P450 2D6 inhibition; assay type: in vitro ADME
Experimental: as §1

[7] = biological target: P450 2C9 (Homo sapiens, UniProt P11712); assay: P450 2C9 inhibition; assay type: in vitro ADME
Experimental: as §1

[8] = In vivo pharmacokinetics in dog
Experimental: Compound 70 was tested in several in vivo assays and the pharmacokinetic parameters listed in the following table may be determined from pharmacokinetic studies in rat, dog, or cynomolgus monkey, according to known methods as generally described in the following references: Garrison et al. J. Med. Chem. 2022, 65, 6273-6286; Felts et al. J. Med. Chem 2017, 60, 5072-5085; and Yu et al. J. Med. Chem. 2021, 64, 4709-4729.

[9] = biological target: T1, Human M4 (Homo sapiens, UniProt P08173); assay: M4 cell-based functional assay (calcium mobilization); set-up: expressed in transfected cells
T1 sequence (P08173 1-479): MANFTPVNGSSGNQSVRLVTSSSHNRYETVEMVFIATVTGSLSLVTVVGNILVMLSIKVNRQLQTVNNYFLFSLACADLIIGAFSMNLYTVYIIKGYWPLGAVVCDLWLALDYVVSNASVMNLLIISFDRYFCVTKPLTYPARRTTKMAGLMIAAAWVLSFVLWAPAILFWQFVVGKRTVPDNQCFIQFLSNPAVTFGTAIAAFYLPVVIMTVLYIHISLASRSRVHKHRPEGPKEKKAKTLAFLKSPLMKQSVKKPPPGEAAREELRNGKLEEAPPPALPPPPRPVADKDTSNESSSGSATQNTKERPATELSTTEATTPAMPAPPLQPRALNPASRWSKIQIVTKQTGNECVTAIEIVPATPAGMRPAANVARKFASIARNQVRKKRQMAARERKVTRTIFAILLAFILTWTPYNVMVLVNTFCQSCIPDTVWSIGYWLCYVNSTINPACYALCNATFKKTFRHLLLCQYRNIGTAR
Summary of the method: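 CHO-K1 cells stably co-expressing hM4 and chimeric Gqi5, loaded with Fluo-4-AM (1.15 μM final, 45 min, 37° C). Compound added ~140 s before EC20 then EC80 acetylcholine; calcium flux by kinetic fluorescence (ex 480/em 530 nm), expressed as fold over basal and normalized to maximal ACh response (1 mM).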

Chain of P450 2D6 (P10635 whole entry): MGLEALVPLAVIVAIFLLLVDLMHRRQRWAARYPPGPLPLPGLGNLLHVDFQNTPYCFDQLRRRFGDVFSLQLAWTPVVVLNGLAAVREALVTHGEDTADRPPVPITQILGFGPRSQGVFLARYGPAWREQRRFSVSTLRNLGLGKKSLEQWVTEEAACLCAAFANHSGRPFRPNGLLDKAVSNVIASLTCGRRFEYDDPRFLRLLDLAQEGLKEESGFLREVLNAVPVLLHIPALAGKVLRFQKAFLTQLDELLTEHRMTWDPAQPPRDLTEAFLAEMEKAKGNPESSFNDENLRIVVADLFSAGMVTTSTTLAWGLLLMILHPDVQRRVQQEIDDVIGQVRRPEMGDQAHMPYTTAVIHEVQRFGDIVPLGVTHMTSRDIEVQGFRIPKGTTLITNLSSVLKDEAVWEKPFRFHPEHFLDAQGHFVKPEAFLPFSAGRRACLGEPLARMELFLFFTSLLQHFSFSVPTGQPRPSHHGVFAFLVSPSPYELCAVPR
Chain of P450 3A4 (P08684 whole entry): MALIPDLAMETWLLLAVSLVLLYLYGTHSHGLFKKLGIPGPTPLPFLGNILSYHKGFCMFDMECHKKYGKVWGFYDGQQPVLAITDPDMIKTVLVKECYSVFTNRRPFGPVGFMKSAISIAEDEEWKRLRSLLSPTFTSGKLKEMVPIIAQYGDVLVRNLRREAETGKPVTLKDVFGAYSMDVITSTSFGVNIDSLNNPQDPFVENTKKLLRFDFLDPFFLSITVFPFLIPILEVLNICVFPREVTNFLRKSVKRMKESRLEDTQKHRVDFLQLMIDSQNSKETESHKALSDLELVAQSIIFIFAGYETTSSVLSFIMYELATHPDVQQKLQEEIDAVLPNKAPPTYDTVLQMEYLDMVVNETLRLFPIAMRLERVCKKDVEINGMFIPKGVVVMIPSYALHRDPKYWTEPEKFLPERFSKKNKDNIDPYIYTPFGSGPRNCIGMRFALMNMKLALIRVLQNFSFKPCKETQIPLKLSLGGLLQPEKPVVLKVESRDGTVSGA
Chain of P450 2C9 (P11712 whole entry): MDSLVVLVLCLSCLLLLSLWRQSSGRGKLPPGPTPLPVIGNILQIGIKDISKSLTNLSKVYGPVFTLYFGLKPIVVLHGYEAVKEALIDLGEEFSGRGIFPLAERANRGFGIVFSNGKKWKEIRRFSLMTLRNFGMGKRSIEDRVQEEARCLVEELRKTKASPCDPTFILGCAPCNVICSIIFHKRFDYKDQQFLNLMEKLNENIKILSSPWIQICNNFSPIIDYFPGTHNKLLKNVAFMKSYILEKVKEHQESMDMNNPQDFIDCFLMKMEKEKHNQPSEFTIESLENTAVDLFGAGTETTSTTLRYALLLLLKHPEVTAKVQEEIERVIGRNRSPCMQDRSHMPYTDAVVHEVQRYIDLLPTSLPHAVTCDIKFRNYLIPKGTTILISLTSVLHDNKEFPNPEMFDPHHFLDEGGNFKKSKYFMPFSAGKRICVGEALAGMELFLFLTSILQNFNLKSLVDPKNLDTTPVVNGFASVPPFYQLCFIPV

In the case of `Cc1c(N2CCc3nc(C4(F)CC4)sc3C2)nc2nn(C)c(=O)n2c1C` [Compound 70, 7-(2-(1-fluorocyclopropyl)-6,7-dihydrothiazolo[5,4-c]pyridin-5(4H)-yl)-2,5,6-trimethyl-[1,2,4]triazolo[4,3-a]pyrimidin-3(2H)-one], the fraction unbound [1] was 0.267, the fraction unbound [2] was 0.177 and the fraction unbound [3] was 0.06. It also gave a CLint scaled [4] of 24 mL/min/kg, a pIC50 [5] of under 4.52 and a pIC50 [6] of under 4.52. For the same compound, the pIC50 [7] was under 4.52, the “Dog oral F (3 mg/kg)” value ([8]; oral 3 mg/kg) was 83% and the clearance ([8]; plasma, read-out: Dog CLp) was 24.4 mL/min/kg. The half-life ([8]; plasma, read-out: Dog Elim. t1/2 (converted)) was 2.1 h, the Vd ([8]; plasma, read-out: Dog Vss) was 3.1 L/kg and the Emax at 30 µM ([9]; % ACh maximum at 30 μM) was 77%. For the same compound, the pEC50 ([9]; CHO-K1 hM4-Gqi5 cells, calcium flux, increase in EC20 acetylcholine response) was 8.40.
